Values after ≈ are worked out from the molar mass of the structure shown. Active and inactive are the calls of the source. No cut-off for these calls is given here.
Legend:
[1] = system: Trichophyton mentagrophytes; assay: Antifungal activity against Trichophyton mentagrophytes DUMC160.03 by CLSI protocol; assay type: functional
[2] = system: Trichophyton mentagrophytes; assay: Antifungal activity against Trichophyton mentagrophytes DUMC112.02 by CLSI protocol; assay type: functional
[3] = system: Zone of skin; assay: Toxicity to human skin assessed as damage of skin integrity at 2 fold MIC administered 30 mins post inoculation followed by once in every 2 days for 7 days by scanning electron microscopy; assay type: tissue-based
[4] = system: Trichophyton mentagrophytes; assay: Antifungal activity against Trichophyton mentagrophytes DUMC160.03 infected in human skin at 2 fold MIC administered 30 mins post infection followed by once in every 2 days for 7 days by scanning electron microscopy relative to control; assay type: functional, organism-based

SMILES	MIC [1]	MIC80 [1]	MIC [2]	MIC80 [2]	Activity [3]	Activity [4]
C/C=C/C[C@@H](C)[C@@H](O)[C@H]1C(=O)N[C@@H](CC)C(=O)N(C)CC(=O)N(C)[C@@H](CC(C)C)C(=O)N[C@@H](C(C)C)C(=O)N(C)[C@@H](CC(C)C)C(=O)N[C@@H](C)C(=O)N[C@H](C)C(=O)N(C)[C@@H](CC(C)C)C(=O)N(C)[C@@H](CC(C)C)C(=O)N(C)[C@@H](C(C)C)C(=O)N1C [CYCLOSPORINE]	1 µg/mL (≈ 0.832 µM)	8 µg/mL (≈ 6.65 µM)	2 µg/mL (≈ 1.66 µM)	2 µg/mL (≈ 1.66 µM)		
OC(Cn1cncn1)(Cn1cncn1)c1ccc(F)cc1F [FLUCONAZOLE]	8 µg/mL (≈ 26.1 µM)	16 µg/mL (≈ 52.2 µM)	8 µg/mL (≈ 26.1 µM)	16 µg/mL (≈ 52.2 µM)	Non-toxic	Active
C=CC[C@@H]1/C=C(\C)C[C@H](C)C[C@H](OC)[C@H]2O[C@@](O)(C(=O)C(=O)N3CCCC[C@H]3C(=O)O[C@H](/C(C)=C/[C@@H]3CC[C@@H](O)[C@H](OC)C3)[C@H](C)[C@@H](O)CC1=O)[C@H](C)C[C@@H]2OC [TACROLIMUS ANHYDROUS]	1 µg/mL (≈ 1.24 µM)	1 µg/mL (≈ 1.24 µM)	1 µg/mL (≈ 1.24 µM)	1 µg/mL (≈ 1.24 µM)	Non-toxic	inactive
CN(C/C=C/C#CC(C)(C)C)Cc1cccc2ccccc12 [TERBINAFINE]	0.0312 µg/mL (≈ 0.107 µM)		0.004 µg/mL (≈ 0.0137 µM)		Non-toxic	Active

Reference: ChEMBL document CHEMBL1153835, “Targeting the calcineurin pathway enhances ergosterol biosynthesis inhibitors against Trichophyton mentagrophytes in vitro and in a human skin infection model” (Antimicrob Agents Chemother, 2007)
